{"source": "patent US6747058B1", "key": {"[1]": {"assay": "Pharmacokinetics (tmax) after intravenous and nebulizer inhalation administration, dog", "type": "in vivo", "conditions": "for Tmax at 14 day / Tmax: blood; for Tmax at 14 day: multiple dose (14 day)", "experimental": "(§1) Two animal species, rat and dog, are administered the formulation in a 14 day multiple dose inhalation study with a nebulizer. Results from the pharmacokinetic portion of the study indicate comparability between tmax values found for intravenous and inhaled delivery."}, "[2]": {"assay": "Pharmacokinetics (tmax) after intravenous and nebulizer inhalation administration, rat", "type": "in vivo", "conditions": "blood; for Tmax: single dose; for Tmax at 14 day: multiple dose (14 day)", "experimental": "as §1"}, "[3]": {"conditions": "cited from earlier work"}}}
{"compound": "CCCCCc1cc(O)c2c(c1)OC(C)(C)[C@@H]1CCC(C)=C[C@@H]21", "values": [{"measurement": "App. calc. tmax", "setting": "[1]; IV, 1 mg/kg, single dose, tmax minus duration of exposure", "result": 1.9, "unit": "min"}, {"measurement": "Tmax at 14 day", "setting": "[1]; inhaled or intranasal, 2 mg/kg, inhalation, 2 mg/kg, 8 minutes exposure, read-out: Average tmax (converted)", "result": 10.2, "unit": "min"}, {"measurement": "Tmax at 14 day", "setting": "[1]; inhaled or intranasal, 2 mg/kg, inhalation, 2 mg/kg, 8 minutes exposure, tmax minus duration of exposure, read-out: App. calc. tmax (converted)", "result": 2.2, "unit": "min"}, {"measurement": "Tmax", "setting": "[1]; inhaled or intranasal, 2 mg/kg, inhalation, 2 mg/kg, 8 minutes exposure, single dose, read-out: Average tmax (converted)", "result": 15.6, "unit": "min"}, {"measurement": "Tmax", "setting": "[1]; inhaled or intranasal, 2 mg/kg, inhalation, 2 mg/kg, 8 minutes exposure, single dose, tmax minus duration of exposure, read-out: App. calc. tmax (converted)", "result": 7.6, "unit": "min"}, {"measurement": "Tmax at 14 day", "setting": "[1]; inhaled or intranasal, 5 mg/kg, inhalation, 5 mg/kg, 20 minutes exposure, read-out: Average tmax (converted)", "result": 22.2, "unit": "min"}, {"measurement": "Tmax at 14 day", "setting": "[1]; inhaled or intranasal, 5 mg/kg, inhalation, 5 mg/kg, 20 minutes exposure, tmax minus duration of exposure, read-out: App. calc. tmax (converted)", "result": 2.2, "unit": "min"}, {"measurement": "Tmax at 14 day", "setting": "[1]; inhaled or intranasal, 15 mg/kg, inhalation, 15 mg/kg, 60 minutes exposure, read-out: Average tmax (converted)", "result": 66, "unit": "min"}, {"measurement": "Tmax at 14 day", "setting": "[1]; inhaled or intranasal, 15 mg/kg, inhalation, 15 mg/kg, 60 minutes exposure, tmax minus duration of exposure, read-out: App. calc. tmax (converted)", "result": 6, "unit": "min"}, {"measurement": "Tmax", "setting": "[1]; iv, 1 mg/kg, IV, 1 mg/kg, single dose, read-out: Average tmax (converted)", "result": 1.8, "unit": "min"}, {"measurement": "Tmax", "setting": "[1]; iv, 1 mg/kg, IV, 1 mg/kg, single dose, tmax minus duration of exposure, read-out: App. calc. tmax (converted)", "result": 1.8, "unit": "min"}, {"measurement": "Tmax", "setting": "[2]; inhaled or intranasal, 0.5 mg/kg, inhalation, 0.5 mg/kg, 1.25 minutes exposure, read-out: Average tmax (converted)", "result": 5.7, "unit": "min"}, {"measurement": "Tmax", "setting": "[2]; inhaled or intranasal, 0.5 mg/kg, inhalation, 0.5 mg/kg, 1.25 minutes exposure, tmax minus duration of exposure, read-out: App. calc. tmax (converted)", "result": 4.45, "unit": "min"}, {"measurement": "Tmax at 14 day", "setting": "[2]; inhaled or intranasal, 2 mg/kg, inhalation, 2 mg/kg, 5 minutes exposure, read-out: Average tmax (converted)", "result": 6, "unit": "min"}, {"measurement": "Tmax at 14 day", "setting": "[2]; inhaled or intranasal, 2 mg/kg, inhalation, 2 mg/kg, 5 minutes exposure, tmax minus duration of exposure, read-out: App. calc. tmax (converted)", "result": 1, "unit": "min"}, {"measurement": "Tmax", "setting": "[2]; inhaled or intranasal, 4.6 mg/kg, inhalation, 4.6 mg/kg, 15 minutes exposure, read-out: Average tmax (converted)", "result": 33.3, "unit": "min"}, {"measurement": "Tmax", "setting": "[2]; inhaled or intranasal, 4.6 mg/kg, inhalation, 4.6 mg/kg, 15 minutes exposure, tmax minus duration of exposure, read-out: App. calc. tmax (converted)", "result": 18.3, "unit": "min"}, {"measurement": "Tmax at 14 day", "setting": "[2]; inhaled or intranasal, 5 mg/kg, inhalation, 5 mg/kg, 15 minutes exposure, read-out: Average tmax (converted)", "result": 17.4, "unit": "min"}, {"measurement": "Tmax at 14 day", "setting": "[2]; inhaled or intranasal, 5 mg/kg, inhalation, 5 mg/kg, 15 minutes exposure, tmax minus duration of exposure, read-out: App. calc. tmax (converted)", "result": 2.4, "unit": "min"}, {"measurement": "Tmax at 14 day", "setting": "[2]; inhaled or intranasal, 15 mg/kg, inhalation, 15 mg/kg, 45 minutes exposure, read-out: Average tmax (converted)", "result": 46.2, "unit": "min"}, {"measurement": "Tmax at 14 day", "setting": "[2]; inhaled or intranasal, 15 mg/kg, inhalation, 15 mg/kg, 45 minutes exposure, tmax minus duration of exposure, read-out: App. calc. tmax (converted)", "result": 1.2, "unit": "min"}, {"measurement": "Tmax", "setting": "[2]; iv, 2 mg/kg, IV, 2 mg/kg, read-out: Average tmax (converted)", "result": 2.1, "unit": "min"}, {"measurement": "Tmax", "setting": "[2]; iv, 2 mg/kg, IV, 2 mg/kg, tmax minus duration of exposure, read-out: App. calc. tmax (converted)", "result": 2.1, "unit": "min"}, {"measurement": "solubility in water", "setting": "[3]", "result": 3000, "unit": "µg/mL"}]}
